Laboratory results reported in PubChem BioAssay (NCI).
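These data come from cells grown in 96-well plates and exposed to compound for 48 hours at five concentrations. Abbreviation: GI50, concentration required for 50% inhibition of growth. Definition used: TGI = concentration required for complete inhibition of growth.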

Legend:
Assay in all cases: inhibition of tumour cell growth, NCI panel, 48 h
SF-295 CNS = system: SF-295 CNS
NCI-H460 lung = system: NCI-H460 lung
SK-MEL-28 melanoma = system: SK-MEL-28 melanoma
BT-549 breast = system: BT-549 breast
UO-31 renal = system: UO-31 renal
NCI-H23 lung = system: NCI-H23 lung
RXF 393 renal = system: RXF 393 renal
SN12C renal = system: SN12C renal
SF-539 CNS = system: SF-539 CNS
SK-MEL-2 melanoma = system: SK-MEL-2 melanoma

| SMILES | GI50 (SF-295 CNS) [µM] | TGI (SF-295 CNS) [µM] | GI50 (NCI-H460 lung) [µM] | TGI (NCI-H460 lung) [µM] | GI50 (SK-MEL-28 melanoma) [µM] | TGI (SK-MEL-28 melanoma) [µM] | GI50 (BT-549 breast) [µM] | TGI (BT-549 breast) [µM] | GI50 (UO-31 renal) [µM] | TGI (UO-31 renal) [µM] | GI50 (NCI-H23 lung) [µM] | TGI (NCI-H23 lung) [µM] | GI50 (RXF 393 renal) [µM] | TGI (RXF 393 renal) [µM] | GI50 (SN12C renal) [µM] | TGI (SN12C renal) [µM] | GI50 (SF-539 CNS) [µM] | TGI (SF-539 CNS) [µM] | GI50 (SK-MEL-2 melanoma) [µM] | TGI (SK-MEL-2 melanoma) [µM] |
| --- | --- | --- | --- | --- | --- | --- | --- | --- | --- | --- | --- | --- | --- | --- | --- | --- | --- | --- | --- | --- |
| C=CCC(N[C@@H](CO)c1ccccc1)c1cn(Cc2ccccc2Cl)c(=O)n(Cc2ccccc2Cl)c1=O (stereo partly specified) | > 100 | > 100 | > 100 | > 100 | > 100 | > 100 | 76.2 | > 100 | > 100 | > 100 | > 100 | > 100 | > 100 | > 100 | > 100 | > 100 | > 100 | > 100 | > 100 | > 100 |
| CC(C)(C)N1CCC1CN (stereo unspecified) | > 100 | > 100 | > 100 | > 100 | > 100 | > 100 | > 100 | > 100 | > 100 | > 100 | > 100 | > 100 | > 100 | > 100 | > 100 | > 100 | > 100 | > 100 | > 100 | > 100 |
| CCOC(=O)c1ccc(Nc2sc(C(=O)c3ccc(Br)cc3)c(N)c2C#N)cc1 | 0.478 | > 100 | 0.924 | > 100 | 4.81 | > 100 | > 100 | > 100 | 1.93 | > 100 | 14.3 | > 100 | 1.78 | > 100 | 4.12 | > 100 | 1.07 | > 100 | 1.27 | > 100 |
| CN(C)c1ccc(/C=C/c2ccnc3c(O)cccc23)cc1 | 1.06 | > 100 | 0.363 | > 100 | 0.624 | > 100 | 1.01 | > 100 | 0.247 | > 22.7 | 0.511 | > 100 | 0.813 | 15.1 | 0.529 | > 100 | 0.344 | 3.33 | 0.301 | 11 |
| COc1ccc(C(=O)Nc2ncc(Cc3cccc(Cl)c3)s2)cc1OC | 0.0607 | 3.64 | 0.0611 | > 100 | 0.119 | > 100 | 0.883 | > 100 | 0.953 | > 100 | 2.51 | > 100 | 1.07 | 6.54 | 1.33 | > 100 | 0.312 | 2.5 | 0.557 | > 100 |
| O=C(O)/C=C/C(=O)N1Cc2cc3ccccc3nc2C1 |  | > 100 |  | > 100 |  | > 100 |  | > 100 |  | > 100 |  | > 100 |  | > 100 |  | > 100 |  | > 100 |  | > 100 |
| Cc1c(O)c2ccccc2oc1=O |  | > 100 |  | > 100 |  | > 100 |  | > 100 |  | > 100 |  | > 100 |  | > 100 |  | > 100 |  | > 100 |  | > 100 |
| Cn1cc(C2=C(c3ccccc3[N+](=O)[O-])C(=O)NC2=O)c2ccccc21 | 1.44 | > 25 | 4.85 | > 25 | 6.24 | 20.1 | 5.26 | > 20.2 | 5.28 | > 20.5 | 7.25 | > 25 | 1.61 | 7.19 | 4.98 | > 25 | 2.61 | 10.1 | 2.92 | 9.55 |
| CC(C)N1CC2CN(Cc3ccccc3)CC(C1)C2=O |  | > 100 |  | > 100 |  | > 100 |  | > 100 |  | > 100 |  | > 100 |  | > 100 |  | > 100 |  | > 100 |  | > 100 |
| CN1CCC(COc2cnc(-c3cccc(Cn4nc(-c5cccc(C#N)c5)ccc4=O)c3)nc2)CC1 | 0.771 | 16.5 | 3.58 | 12.3 | 1.82 | 3.52 | 4.66 | 15.2 | 2.26 | 5.79 | 4.93 | 21.6 | 1.49 | 3.08 | 6.89 | 19.6 | 1.7 | 3.3 | 6.66 | 15.1 |
| CSC1=Nc2c(c(C)c(-c3ccccc3)n2CCCN2CCCCC2)C2=NC(=O)C[C@H](C)N12 | 2.54 | 9.19 | 3.27 | 12.4 | 3.32 | 14.9 | 2.83 | 13.7 | 6.35 | 26 | 3.08 | > 46.4 | 2.56 | 10.2 | 2.42 | 20.9 | 6.07 | 70.4 | 2.14 | 5.26 |
| CCOC(=O)[C@@H](C)C[C@H](Cc1ccccc1)NC(=O)c1nc([C@@H](C[C@H](C(C)C)N(C)C(=O)[C@@H](NC(=O)[C@H]2CCCCN2C)C(C)C)OC(C)=O)sc1CCOCc1ccccc1 | 0.0499 | 1.36 | 0.0425 | 1.4 | 0.54 | 2.72 | 0.0792 | 0.918 | 0.586 | 2.24 | 0.188 | 5.6 | 0.0657 | 1.53 | 0.0706 | 1.55 | 0.0571 | 0.39 | 0.0639 | 2.39 |
| O=c1cc(-c2ccccc2)oc2ccc(OC/C(=N/O)c3ccccc3)cc12 | 1.25 | 3.34 | 1.97 | 16.9 | 8.38 | > 50 | 1.46 | 9.01 | 4.34 | > 50 | 2.4 | > 50 | 2.46 | 14.8 | 2.79 | 33.9 | 1.39 | 2.93 | 29.6 | > 50 |
| CCC(CC)c1nc(Nc2ccc(C(=O)OC)cc2)c2ccccc2n1 | > 18.8 | > 26 | 19.9 | > 50 | 7.1 | 15.3 | 31.7 | > 50 | 7.94 | 15.4 | 15.5 | > 37.4 | 8.34 | 21.3 | 7.83 | 16.3 | > 20.5 | > 28.6 | 9.39 | 20 |
| CCCCCCCC/C=C/CCCCCCCC1=NC(C)(C)CN1CC(C)O (stereo unspecified) | 1.82 | 3.5 | 1.94 | 3.64 | 1.74 | 3.19 | 2.84 | 15.7 | 1.63 | 4.19 | 3.11 | 7.99 | 1.53 | 3.39 | 3.3 | 12.3 | 1.7 | 3.09 | 2.28 | 5.21 |
| C=C(C)[C@@H]1CC[C@]2(COCCC#N)CC[C@]3(C)[C@H](CC[C@@H]4[C@@](C)(CCCNCCC#N)[C@H](C(=C)C)CC[C@]43C)[C@@H]12 | > 50 | > 50 | 13.2 | > 50 | 9.26 | 18 | 24.3 | > 50 | 10.7 | > 50 | 16.5 | > 50 | 7.44 | 14.5 | 10 | 29.2 | 9.78 | 20.4 | 10.7 | 25.4 |
| Cc1cc(Nc2ccc(OCc3ccccc3)cc2)nc2cc(O)ccc12 | 2.23 | 5.36 | 3.09 | 10.2 | 2.95 | 8.19 | 5.46 | 21 | 2.04 | 6.58 | 6.91 | 21.5 | 2.95 | 12.1 | 5.75 | 20.3 | 2.08 | 4.93 | 11.9 | 30.1 |
| NC1=CC(=O)c2cccnc2C1=O | 1.62 | 3.1 | 1.23 | 3.25 | 1.7 | 3.21 | 1.58 | 2.98 | 1.17 | 2.5 | 1.34 | 4.14 | 1.67 | 3.2 | 1.49 | 2.94 | 1.62 | 3 | 1.63 | 3.14 |
| Cc1cccc(-c2[nH]ncc2-c2ccc3ncccc3n2)n1 | 13.7 | > 25 | 8.76 | > 25 | 13.3 | > 25 | > 25 | > 25 | 6.17 | > 25 | 14.2 | > 25 | 5.87 | 12.7 | 9.64 | > 25 | 17.4 | > 25 | 10.7 | > 25 |
| CC[C@@H]1[C@@H](C)O[C@@](O)([C@@H](C)[C@H](O)[C@H](C)[C@H]2OC(=O)/C=C/C=C/[C@H](C)[C@@H]([C@@H](C)[C@@H](O)[C@H](C)[C@@]3(O)C[C@@H](O[C@H]4C[C@@H](O)[C@H](O)C(C)O4)[C@H](CC)[C@@H](C)O3)OC(=O)/C=C/C=C/[C@@H]2C)C[C@H]1O[C@@H]1C[C@@H](O)[C@H](O)C(C)O1 (stereo partly specified) | 0.061 | 0.132 | 0.0569 | 0.115 | 0.0885 | 0.258 | 0.0569 | 0.124 | 0.134 | 0.583 | 0.0655 | 0.149 | 0.0521 | 0.119 | 0.0584 | 0.126 | 0.0708 | 0.182 | 0.0808 | 0.197 |
| CC12OOC(c3ccccc31)c1c2ccc2ccccc12 (stereo unspecified) |  | 14.3 |  | 5.48 |  | 27 |  | 22.3 |  | 23.2 |  | 26.6 |  | 7.53 |  | 29.6 |  | 22.3 |  | 24.9 |
| COc1ccc(N=Cc2c(O)ccc3c2oc2cc(Cl)c(O)c(Cl)c23)cc1 | 3.39 | 17.8 | 12.7 | 33.9 | 15.9 | 40.4 | 13.4 | > 100 | 5 | 26.6 | 12.2 | 42.5 | 14.2 | 31.4 | 19.3 | 63.6 | 7.03 | 30.4 | 5.92 | 22.9 |
| COc1ccc(/C=C(/C(=O)N2CCN(c3ccccc3)CC2)c2cc(OC)c(OC)c(OC)c2)cc1N | 0.342 | > 100 | 0.364 | > 100 | 1.47 | > 100 | 0.53 | > 100 | 0.812 | > 100 | 2.18 | > 100 | 0.272 | > 100 | 0.643 | > 100 | 0.223 | 0.797 | 0.725 | > 100 |
| CC[C@H](NC(=O)[C@H]1CCCCN1C)C(=O)N(C)[C@H](C[C@@H](OC(C)=O)c1nc(C(=O)N[C@@H](Cc2ccccc2)C[C@H](C)C(=O)O)cs1)C(C)C | 0.00456 | > 6.44 | 0.00436 | > 14.3 |  |  | 0.00631 | 0.473 | 0.0741 | > 14.3 | 0.0073 | > 14.3 | 0.00391 | > 14.3 | 0.00993 | > 14.3 | 0.0035 | 0.0265 | 0.00145 | > 14.3 |
| C[C@]12CCc3nc(Nc4cccc(O)c4)sc3C1=CC[C@@H]1[C@@H]2CC[C@]2(C)/C(=N\NC(N)=S)CC[C@@H]12 | 1.2 | 3.11 | 1.96 | 4.05 |  |  | 1.15 | 3.97 | 1.4 | 2.83 | 2.78 | 8.96 | 0.574 | 2.19 | 1.98 | 5.31 | 0.464 | 1.84 | 2.32 | 7.36 |
